Data taken from patent publication US8222244B2, “Staurosporine derivatives as inhibitors of FLT3 receptor tyrosine kinase activity” (Novartis AG, priority 2001, dated 2012).
Entries after “also recorded” stand apart in the source; their conditions may differ.

Legend:
[1] = test system: human leukemia and lymphoma cell lines that did not have mutant FLT3 receptors; assay: Cytotoxicity against leukemia and lymphoma cell lines without mutant FLT3 receptors; type: cell-based; conditions: at the concentrations required to inhibit the proliferation of FLT3-dependent cell-lines
Ba/F3-FLT3-ITD cells = conditions: in 24-72 hours
Experimental: (§1) To search for FLT3-targeted compounds, the applicant screened the inhibitory effects of several compounds on two different kinds of assays. • Tyrosine protein kinase assays with purified GST-Flt-3 were carried in a final volume of 30 μL containing 200-1800 ng of enzyme protein. The activity was assayed in the presence or absence of inhibitors, by measuring the incorporation of ^33P from [γ^33P] ATP into appropriate substrates. […] Cell lines expressing two different forms of mutated, activated FLT3 are used: Ba/F3-FLT3-ITD cells expressing a FLT3 mutant with an “Internal Tandem Duplication” (ITD) within the juxtamembrane domain of the receptor. Ba/F3-FLT3-D835Y cells expressing an FLT3 receptor containing a mutation converting […] at position 835 to Tyrosine.
(§2) A cell based assay is utilised to identify inhibitors of mutant FLT3 tyrosine kinase receptors.
(§3) The cell lines used for the initial screening are sublines of Ba/F3 cells that are engineered to express mutant or over-express wild-type (non-mutated) FLT3 following infection with a retrovirus expressing appropriate FLT3 cDNAs. The parent cell line, Ba/F3 is dependent on interleukin-3 for proliferation, and when deprived of IL-3, the cells rapidly cease proliferation and die. The retrovirus expresses FLT3 from the retrovirual LTR and the neo gene from an IRES site.

Ba/F3-FLT3-D835Y cells = conditions: in 24-72 hours
Experimental: as §1, §2, §3

human Flt-3 = biological target: T1, human Flt-3 (Homo sapiens, UniProt P36888); assay: Tyrosine protein kinase assay with purified GST-Flt-3 (33P incorporation); type: biochemical; conditions: at a 1.0 micromolar concentration
T1 construct: expresses the amino acid region amino acids 563-993 of the intra-cytoplasmic kinase domains of human Flt-3; made in house; host or cells: Sf9 insect cells (baculovirus, pFbacG01 donor vector)
T1 sequence (P36888 563-993): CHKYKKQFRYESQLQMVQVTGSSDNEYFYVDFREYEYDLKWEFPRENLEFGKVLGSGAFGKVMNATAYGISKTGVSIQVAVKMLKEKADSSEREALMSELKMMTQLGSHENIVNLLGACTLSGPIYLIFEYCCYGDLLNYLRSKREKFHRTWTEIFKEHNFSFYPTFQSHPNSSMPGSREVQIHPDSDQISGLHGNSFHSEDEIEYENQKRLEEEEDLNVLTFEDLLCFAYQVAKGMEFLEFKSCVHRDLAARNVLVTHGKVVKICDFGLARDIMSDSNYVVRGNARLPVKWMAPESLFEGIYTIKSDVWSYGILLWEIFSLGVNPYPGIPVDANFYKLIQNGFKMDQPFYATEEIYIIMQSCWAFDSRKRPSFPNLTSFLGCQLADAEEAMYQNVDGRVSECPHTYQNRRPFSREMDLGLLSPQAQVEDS
How it was run: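 GST-fused Flt-3 cytoplasmic domain, expressed in baculovirus-infected Sf9 cells and purified, phosphorylates substrate with [γ-33P]ATP. Reaction spotted onto PVDF membranes, washed with H3PO4 and ethanol, and incorporated 33P counted by scintillation.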

Row | Compound | Flt3 Inhibition (percent inhibition of Flt3 kinase activity) (human Flt-3) | also measured
1 | CO[C@@H]1[C@H](N(C)C(=O)c2ccccc2)C[C@H]2O[C@]1(C)n1c3ccccc3c3c4c(c5c6ccccc6n2c5c31)C(=O)NC4 [MIDOSTAURIN, N-[(9S,10R,11R,13R)-2,3,10,11,12,13-hexahydro-10-methoxy-9-methyl-1-oxo-9,13-epoxy-1H,9H-diindolo[1,2,3-gh:3′,2′,1′-Im]pyrrolo[3,4-j][1,7]benzodiazonin-11-yl]-N-methylbenzamide] |  | cytotoxicity [1]: not cytotoxic; also recorded: not cytoxic; G1 cell cycle arrest and apoptosis (Ba/F3-FLT3-ITD cells): induced both G1 cell cycle arrest and apoptosis; G1 cell cycle arrest and apoptosis (Ba/F3-FLT3-D835Y cells): induced both G1 cell cycle arrest and apoptosis
2 | COC1C(N(C)C(=O)C(C)OC2CCOCC2)CC2OC1(C)n1c3ccccc3c3c4c(c5c6ccccc6n2c5c31)C(=O)NC4 (stereo not drawn) [160335-31-9, [9S-[9a,10b,11b(R*),13a]]-N-(2,3,10,11,12,13-Hexahydro-10-methoxy-9-methyl-1-oxo-9,13-epoxy-1H,9H-diindolo[1,2,3-gh:3′,2′,1′-lm]pyrrolo[3,4-j][1,7]benzodiazonin-11-yl)-N-methyl-2-[(tetrahydro-2H-pyran-4-yl)oxy]-propanamide] | 90% | 
3 | CC[N+](C)(C)C1CC2OC(C)(C1OC)n1c3ccccc3c3c4c(c5c6ccccc6n2c5c31)C(=O)NC4.[I-] (stereo not drawn) [120685-28-1, N-Ethyl-[9S-(9a,10b,11b,13a)]-2,3,10,11,12,13-hexahydro-10-methoxy-N,N,9-trimethyl-1-oxo-9,13-epoxy-1H,9H-diindolo[1,2,3-gh:3′,2′,1′-lm]pyrrolo[3,4-j][1,7]benzodiazonin-11-aminium iodide] | 100% | 
4 | (9a,10b,11b,13a)-11-[(N-Acetyl-6-amino-6-deoxy-b-muramoyl)methylamino]-2,3,10,11,12,13-hexahydro-10-methoxy-9-methyl-9,13-epoxy-1H,9H-diindolo[1,2,3-gh:3′,2′,1′-lm]pyrrolo[3,4-j][1,7]benzodiazonin-1-one [149713-77-9] | 96% | 
5 | COC1C(=NOC(C)=O)CC2OC1(C)n1c3ccccc3c3c4c(c5c6ccccc6n2c5c31)C(=O)NC4 (stereo not drawn) [187457-78-9, [9S-(9a,10b,13a)]-2,3,9,10,12,13-Hexahydro-10-methoxy-9-methyl-9,13-epoxy-1H,11H-diindolo[1,2,3-gh:3′,2′,1′-lm]pyrrolo[3,4-j][1,7]benzodiazonine-1,11-dione, 11-(O-acetyloxime)] | 77% | 
6 | (9a,10b,11b,13a)-11-[[N-Acetyl-6-azido-6-deoxy-1-O-(phenylmethyl)-a-muramoyl]methylamino]-2,3,10,11,12,13-hexahydro-10-methoxy-9-methyl-,9,13-epoxy-1H,9H-diindolo[1,2,3-gh:3′,2′,1′-lm]pyrrolo[3,4-j][1,7]benzodiazonin-1-one [149622-42-4] | 61% | 
7 | CO[C@@H]1/C(=N/O)C[C@H]2O[C@]1(C)n1c3ccccc3c3c4c(c5c6ccccc6n2c5c31)C(=O)NC4 [126221-76-9, (9S,10R,11Z,13R)-2,3,9,10,12,13-Hexahydro-10-methoxy-9-methyl-9,13-epoxy-1H,11H-diindolo[1,2,3-gh:3′,2′,1′-lm]pyrrolo[3,4-j][1,7]benzodiazonine-1,11-dione, 11-oxime] | 83% | 
8 | (9a,10b,11b,13a)-11-[(N-Acetyl-4,6-di-O-acetyl-a-muramoyl)methylamino]-2,3,10,11,12,13-hexahydro-10-methoxy-9-methyl-9,13-epoxy-1H,9H-diindolo[1,2,3-gh:3′,2′,1′-lm]pyrrolo[3,4-j][1,7]benzodiazonin-1-one [149622-65-1] | 74% | 
9 | [9S-(9a,10b,11b,13a)]-[3-[(2,3,10,11,12,13-Hexahydro-10-methoxy-9-methyl-1-oxo-9,13-epoxy-1H,9H-diindolo[1,2,3-gh:3′,2′,1′-lm]pyrrolo[3,4-j][1,7]benzodiazonin-11-yl)methylamino]-3-oxopropyl]-carbamic acid, 1,1-dimethylethyl ester [124078-44-0] | 87% | 
10 | CNC(=S)N(C)C1CC2OC(C)(C1OC)n1c3ccccc3c3c4c(c5c6ccccc6n2c5c31)C(=O)NC4 (stereo not drawn) [120685-13-4, (9a,10b,11b,13a)-N-(2,3,10,11,12,13-Hexahydro-10-methoxy-9-methyl-1-oxo-9,13-epoxy-1H,9H-diindolo[1,2,3-gh:3′,2′,1′-lm]pyrrolo[3,4-j][1,7]benzodiazonin-11-yl)-N,N′-dimethyl-thiourea] | 91% | 
11 | [9S-(9a,10b,11b,13a)]-N-(2,3,10,11,12,13-Hexahydro-10-methoxy-9-methyl-1-oxo-9,13-epoxy-1H,9H-diindolo[1,2,3-gh:3′,2′,1′-lm]pyrrolo[3,4-j][1,7]benzodiazonin-11-yl)-N-methyl-2-[(tetrahydro-2H-pyran-4-yl)oxy]-acetamide [160251-52-5] | 94% | 
12 | COC1C([N+](C)(C)C)CC2OC1(C)n1c3ccccc3c3c4c(c5c6ccccc6n2c5c31)C(=O)NC4.[I-] (stereo not drawn) [120685-26-9, [9S-(9a,10b,11b,13a)]-2,3,10,11,12,13-Hexahydro-10-methoxy-N,N,N,9-tetramethyl-1-oxo-9,13-epoxy-1H,9H-diindolo[1,2,3-gh:3′,2′,1′-lm]pyrrolo[3,4-j][1,7]benzodiazonin-11-aminium iodide] | 97% | 
13 | (9a,10b,11b,13a)-11-[[N-Acetyl-1-O-(phenylmethyl)-a-muramoyl]methylamino]-2,3,10,11,12,13-hexahydro-10-methoxy-9-methyl-9,13-epoxy-1H,9H-diindolo[1,2,3-gh:3′,2′,1′-lm]pyrrolo[3,4-j][1,7]benzodiazonin-1-one [149622-39-9] | 72% | 
